In US20230382915A1, “GCN2 AND PERK KINASE INHIBITORS AND METHODS OF USE THEREOF” (Deciphera Pharmaceuticals, LLC, priority 2021, published 2023):

How the values were obtained:
[1] = system: ATF4 in HCT116 colorectal cancer cells; assay: HCT116 amino acid starved (-AA) ATF4 Western blot; type: cell-based; details: Homo sapiens, HCT-116, 4 h
Description: HCT116 colorectal cancer cells (catalog #CCL-247) were obtained from the American Type Culture Collect (ATTC, Manassas, VA). Briefly, cells were grown in RPMI 1640 supplemented with 10% heat inactivated fetal bovine serum (Invitrogen, Carlsbad, CA) and 1% Penicillin/Streptomycin/L-Glutamine at 37° C., 5% CO2, and 95% humidity. Cells were expanded until reaching 70-95% confluency at which point they were subcultured or harvested for assay use. Cells were seeded in 12-well culture plate at five hundred thousand cells per well in 1 mL complete growth medium and incubated overnight at 37° C., 5% CO2, and 95% humidity. The next day each well was replaced with 1 mL Earle's Balanced Salt Solution (EBSS, Invitrogen, Carlsbad, CA) supplemented with 10% Dialyzed Fetal Bovine Serum, 5.5 mM Glucose, 1% Penicillin/Streptomycin and 1% Vitamin solution (thermo #11120052). A serial dilution of test compound was dispensed into well. Plates were incubated for 4 h at 37° C., 5% CO2, and 95% humidity. […] Western blot was performed on each lysate to quantify phospho-GCN2 (Thr899), total GCN2, ATF4 and beta-Actin. […] Data were analyzed using GraphPad Prism software (GraphPad, San Diego, CA) to calculate IC50 values.

PERK enzyme = PERK enzyme (Homo sapiens (Human), UniProt Q9NZJ5); assay: Recombinant PERK activation assay; type: biochemical; details: FIG. 9B
Description: To measure Compound 2-mediated PERK modulation, 200 nM PERK enzyme (Enzo, Farmingdale, NY) was incubated with Compound 2 titer for 30 min at RT. Following incubation, 200 nM substrate (GFP-eIF2α) (ThermoFisher Scientific, Waltham, MA) and 1 mM ATP was added to the mixture and incubated for 60 min at RT. Reaction was stopped by the addition of 10 mM EDTA and phosphorylated eiF2a substrate was detected using 2 nM LanthaScreen Tb-anti-peIF2α (pSer52) antibody (ThermoFisher Scientific, Waltham, MA) then incubated in the dark. After a 60 min incubation at room temperature, TR-FRET was monitored using an excitation wavelength of 340 nm and emission wavelengths of 490 nm and 520 nm.

Sequence of PERK enzyme (Q9NZJ5 30-1116): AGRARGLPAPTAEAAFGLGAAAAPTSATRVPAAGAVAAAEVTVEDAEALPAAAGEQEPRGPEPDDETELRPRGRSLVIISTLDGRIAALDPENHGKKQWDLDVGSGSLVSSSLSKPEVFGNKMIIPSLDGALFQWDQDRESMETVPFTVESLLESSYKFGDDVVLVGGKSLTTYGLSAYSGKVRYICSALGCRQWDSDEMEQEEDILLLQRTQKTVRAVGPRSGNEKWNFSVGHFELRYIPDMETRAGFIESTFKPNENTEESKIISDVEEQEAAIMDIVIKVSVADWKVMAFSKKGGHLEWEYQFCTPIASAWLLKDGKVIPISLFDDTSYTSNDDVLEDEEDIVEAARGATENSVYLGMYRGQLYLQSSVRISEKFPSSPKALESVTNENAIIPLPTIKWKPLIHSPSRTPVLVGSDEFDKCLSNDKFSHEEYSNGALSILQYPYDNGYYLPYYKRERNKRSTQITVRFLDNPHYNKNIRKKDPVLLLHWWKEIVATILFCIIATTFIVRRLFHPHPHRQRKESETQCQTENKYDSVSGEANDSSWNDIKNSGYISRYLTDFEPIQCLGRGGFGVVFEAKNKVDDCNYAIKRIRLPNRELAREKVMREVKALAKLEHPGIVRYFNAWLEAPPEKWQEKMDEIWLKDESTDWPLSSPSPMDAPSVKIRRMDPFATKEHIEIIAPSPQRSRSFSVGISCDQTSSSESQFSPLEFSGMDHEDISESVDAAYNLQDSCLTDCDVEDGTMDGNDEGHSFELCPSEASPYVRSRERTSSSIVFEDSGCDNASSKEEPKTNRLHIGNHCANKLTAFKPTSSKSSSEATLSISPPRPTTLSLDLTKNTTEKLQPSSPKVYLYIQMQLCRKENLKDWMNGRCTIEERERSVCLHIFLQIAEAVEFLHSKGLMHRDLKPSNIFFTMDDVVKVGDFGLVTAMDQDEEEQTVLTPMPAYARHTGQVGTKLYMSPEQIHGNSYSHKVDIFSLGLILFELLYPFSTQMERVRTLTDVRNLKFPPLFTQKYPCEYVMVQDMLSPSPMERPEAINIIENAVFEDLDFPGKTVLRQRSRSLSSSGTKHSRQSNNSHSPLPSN

SMILES: Cn1cc(-c2cccc(NS(=O)(=O)c3cc(Cl)cc(CO)c3Cl)c2F)c2c(N)ncnc21 [Example 2, N-(3-(4-amino-7-methyl-7H-pyrrolo[2,3-d]pyrimidin-5-yl)-2-fluorophenyl)-2,5-dichloro-3-(hydroxymethyl)benzenesulfonamide]
- IC50 [1]: ≤ 100 nM
- concentrations at which PERK enzyme is activated (PERK enzyme): 0.05 to 6 nM
- concentrations at which recombinant PERK activity is inhibited (PERK enzyme): above 3 μM
- activation of PERK enzyme, % of control (PERK enzyme; at 0.05-6 nM): up to 250 % of control
